Data: publication PMC11665553, “12-Lipoxygenase inhibition delays onset of autoimmune diabetes in human gene replacement mice” (JCI Insight, 2024)
Several values for one entry are separate records, joined by “and”; a condition that tells them apart may be missing. Equal entries are not always repeated.

Key:
C57BL/6J mice = experiment: Multiple low-dose STZ-induced diabetes in WT C57BL/6J mice (random-fed blood glucose, GTT); type: in vivo, mouse; parameters: Random-fed blood glucose (Fig 1E) / GTT blood glucose (Fig 1F): unit not given here; conditions: for Random-fed blood glucose (Fig 1E): 30 mg/kg i.p. + STZ; for Random-fed blood glucose (Fig 1E) / GTT blood glucose (Fig 1F): listed as ML355; for GTT blood glucose (Fig 1F): Control (C57BL/6J)
NOD.hALOX12 mice = experiment: Flow cytometry of pancreatic lymph nodes and spleen of NOD.hALOX12 mice; type: in vivo, mouse; parameters: FoxP3 / CD4 / IFNg / IL-17a: unit not given here; conditions: for CD4 / FoxP3 / IFNg / IL-17a: flow cytometry, individual animals, listed as VLX
Protocol: Spleen and pLNs were harvested, homogenized, and passed through a 70 μm strainer to obtain a single-cell suspension. Cell pellets were resuspended in red blood cell (RBC) lysing solution to remove red blood cells. […] The following surface markers were used — CD4-FITC (BioLegend, 100510; 1:100), CD8–PerCP-Cy5.5 (BioLegend, 100734; 1:100), and CD19-AF700 (BioLegend, 152414; 1:100). Following incubation of surface antibodies, cells were washed with stain buffer and then permeabilized using fix/perm buffer (BD Biosciences, 554722) before intracellular staining. The following intracellular antibodies from BD Biosciences were used: FoxP3-AF647 (560401; 1:100), IFN-γ–PE (554412; 1:50), and IL-17a–APCCY7 (560821; 1:50). Cells were analyzed on the Attune NxT Flow Cytometer (Thermo Fisher Scientific). Data were analyzed by FlowJo software (BD Biosciences).

[1] = system: BMDMs from NOD.hALOX12 mice; experiment: RNA sequencing of M0 and M1-like polarized BMDMs; type: cell-based, mouse
Description: BMDMs were unpolarized (M0) or polarized to an M1-like state (with lipopolysaccharide and IFN-γ) to mimic the inflammatory state that might be observed during T1D pathogenesis.
These common genes mapped to pathways related to cytokine-mediated signaling, T cell activation, and antigen processing and presentation (Supplemental Figure 3B). […] The 507 genes altered with vehicle treatment mapped to GO pathways related to the M1 polarization phenotype (myeloid cell differentiation, immune response, response to cytokines) and pathways related to oxidative stress (cell redox homeostasis, response to hydrogen peroxides) (Figure 5E). These pathways were not identified in the genes that were differentially expressed during VLX-1005 treatment.
BMDMs were isolated from 8-week-old NOD.hALOX12 mice as described previously ([2]). The isolated BMDMs were cultured for 7 days in complete medium (RPMI 1640 containing 10% FBS, 10 mM HEPES, and 100 U/mL penicillin/streptomycin) supplemented with 10 ng/mL M-CSF. […] After 1-hour pretreatment, the BMDMs were further stimulated with 10 ng/mL LPS and 25 ng/mL IFN-γ for 18 hours for M1-like polarization. RNA was isolated and used for sequencing.
RNA extraction was performed using RLT Buffer, according to the manufacturer’s instructions (Qiagen). Samples were submitted for library generation and sequencing by the University of Chicago sequencing core using a NovaSeq 6000 (Illumina). Data were analyzed using Galaxy (https://usegalaxy.org/). Reads were aligned to the Mus musculus genome build mm10 using HISAT2 (https://daehwankimlab.github.io/hisat2/). Individual sample reads were quantified using HTseq-count and normalized using DESeq2 (https://bioconductor.org/packages/release/bioc/html/DESeq2.html). DEseq2 was also used to calculate FCs and P values and to perform optional covariate correction. GO was used for pathway analysis.

[2] = female NOD.hALOX12 mice, 30 mg/kg p.o., 4 weeks
[3] = sheet Fig 5G, 4 replicates, listed as VLX

## COc1cccc(CNc2ccc(S(=O)(=O)Nc3nc4ccccc4s3)cc2)c1O [VLX-1005]
C57BL/6J mice; C57BL/6J, day 0, individual mice
  Random-fed blood glucose (Fig 1E): 180 and 167 and 192 and 187
C57BL/6J mice; C57BL/6J, day 5, individual mice
  Random-fed blood glucose (Fig 1E): 172 and 214 and 232 and 221
C57BL/6J mice; C57BL/6J, day 10, individual mice
  Random-fed blood glucose (Fig 1E): 253 and 280 and 275 and 278
C57BL/6J mice; C57BL/6J, day 15, individual mice
  Random-fed blood glucose (Fig 1E): 347 and 298 and 284 and 335
C57BL/6J mice; C57BL/6J, day 22, individual mice
  Random-fed blood glucose (Fig 1E): 347 and 428 and 437 and 367
C57BL/6J mice; C57BL/6J, day 27, individual mice
  Random-fed blood glucose (Fig 1E): 487 and 478 and 512 and 486
C57BL/6J mice; C57BL/6J, day -5, individual mice
  Random-fed blood glucose (Fig 1E): 190 and 213 and 199 and 201
C57BL/6J mice; C57BL/6J, 30 mg/kg i.p., day 4 after STZ, individual mice
  GTT AUC (Fig 1G): 44930 and 36610 and 49530 and 43880
C57BL/6J mice; 30 mg/kg i.p., day 4 after STZ, 0 min after glucose, individual mice
  GTT blood glucose (Fig 1F): 164 and 184 and 175 and 154
C57BL/6J mice; 30 mg/kg i.p., day 4 after STZ, 10 min after glucose, individual mice
  GTT blood glucose (Fig 1F): 268 and 395 and 398 and 425
C57BL/6J mice; 30 mg/kg i.p., day 4 after STZ, 20 min after glucose, individual mice
  GTT blood glucose (Fig 1F): 532 and 602 (2×) and 658
C57BL/6J mice; 30 mg/kg i.p., day 4 after STZ, 30 min after glucose, individual mice
  GTT blood glucose (Fig 1F): 682 and 563 and 602 and 586
C57BL/6J mice; 30 mg/kg i.p., day 4 after STZ, 60 min after glucose, individual mice
  GTT blood glucose (Fig 1F): 547 and 425 and 594 and 493
C57BL/6J mice; 30 mg/kg i.p., day 4 after STZ, 90 min after glucose, individual mice
  GTT blood glucose (Fig 1F): 459 and 369 and 530 and 452
C57BL/6J mice; 30 mg/kg i.p., day 4 after STZ, 120 min after glucose, individual mice
  GTT blood glucose (Fig 1F): 366 and 256 and 369 and 398
C57BL/6J mice; male WT C57BL/6J mice, 30 mg/kg i.p. daily peri-STZ
  Glycemic outcome after STZ: became overtly hyperglycemic
NOD.hALOX12 mice; [2]
  CD4+Foxp3+ regulatory T cells in pancreatic lymph nodes: increase
  Tregs in spleen: no changes
NOD.hALOX12 mice; sheet SFig 2C
  CD4: 65.7 and 58.8 and 61.4 and 58 and 54.2
  FoxP3: 4.31 and 7.46 and 5.24 and 7.28 and 5.6
  IFNg: 0.037 and 0.092 and 0.047 and 0.058 and 0.044
  IL-17a: 2.96 and 5.74 and 6.17 and 6.96 and 7.02
NOD.hALOX12 mice; sheet SFig 2D
  CD4: 46.2 and 45.1 and 46.1 and 45.5 and 43.7
  FoxP3: 8.7 and 7.15 and 4.07 and 12.1 and 9.49
  IFNg: 0.36 and 0.33 and 0.39 and 0.29 and 0.4
  IL-17a: 3.2
[1]; 10 μM, P < 0.05 by t test
  Magnitude of changes of IFN pathway genes vs vehicle in M1-like BMDMs: augmented significantly
[1]; [3]
  Adar expression (heat map value): 1.762 and 1.682 and 1.654 and 1.2
  Arrdc4 expression (heat map value): 1.769 and 1.684 and 1.6721 and 1.333
  Ddx3x expression (heat map value): 0.9319 and 0.8926 and 0.8886 and 0.8518
  Dhx58 expression (heat map value): 2.321 and 1.936 and 1.912 and 1.006
  Gigyf2 expression (heat map value): 0.9359 and 0.7566 and 0.751 and 0.4484
  Kat5 expression (heat map value): 0.9038 and 0.7157 and 0.4242 (2×)
  Lrrfip2 expression (heat map value): 1.898 and 1.808 and 1.658 and 1.413
  Mark4 expression (heat map value): 1.966 and 1.936 and 1.657 and 1.006
  Mmp12 expression (heat map value): 0.8105 and 0.4921 (3×)
  Ninj1 expression (heat map value): 1.769 and 1.701 and 1.685 and 1.401
  Nlrp3 expression (heat map value): 2.077 and 1.964 and 1.718 and 1.337
  Nono expression (heat map value): 1.2 and 1.151 and 1.126 and 1.119
  Oas1e expression (heat map value): 2.321 and 1.949 and 1.675 and 1.657
  Pou2f2 expression (heat map value): 1.6038 and 1.537 and 1.347 and 1.324
  Riok3 expression (heat map value): 1.411 and 1.279 and 1.172 and 1.109
  Srebf1 expression (heat map value): 0.9499 and 0.826 and 0.6628 and 0.3958
  Tank expression (heat map value): 2.305 and 1.708 and 1.675 and 0.8815
  Tlr6 expression (heat map value): 2.235 and 2.002 and 1.489 and 1.453
  Tmem126a expression (heat map value): 0.7845 and 0.7743 and 0.7659 and 0.465
  Tomm70a expression (heat map value): 1.572 and 1.428 and 1.219 and 1.127
  Ttll12 expression (heat map value): 2.1636 and 1.773 and 1.7 and 1.671
  Ube2k expression (heat map value): 1.475 and 1.413 and 1.263 and 1.205
